Reference: patent US20160215111A1, “MATERIALS AND METHODS” (THE UNIVERSITY OF SYDNEY, priority 2013, published 2016)

How the values were obtained:
Human dermal fibroblasts [1] = experiment: Cell attachment of human dermal fibroblasts to peptide coated polymer samples (crystal violet); assay type: cell-based; settings: for % cell attachment / maximal % cell attachment: BSA blocked; for cell binding activity after dry autoclaving / cell binding activity after heating: coated at pH 10, 0 mM NaCl; for cell binding activity after dry autoclaving: 120° C., 20 min (FIG. 10); for maximal % cell attachment: coating concentration 50 μM
Description: PFTE and polystyrene were obtained from Goodfellow. PEEK was sourced from Vitrex. […] Human dermal fibroblasts were cultured in a humidified 5% CO2 atmosphere in DMEM (Invitrogen) supplemented with 10% (v/v) fetal calf serum (Invitrogen), and passaged 1 in 10 every 3-4 days. Unless stated otherwise all other reagents were purchased from Sigma.
Where stated samples were incubated in 2% Tween-20 for 10 min at 70° C. then washed with PBS. Where stated non-specific cell binding was prevented with incubation in 10 mg/ml heat denatured (80° C./10 min) BSA for 1 hour at room temperature. Confluent 75 cm^2 flasks of cells were harvested by trypsinization, and the cell density adjusted to 5×10^5 cells/ml in serum free DMEM. The cells were added to the samples for 60 min at 37° C., 5% CO2 then non-adherent cells were removed with 2×1 PBS washes. Adherent cells were fixed with the addition of 5% glutaraldehyde (w/v) in PBS for 20 min. The samples were washed 3×PBS, and then the cells were stained with 0.1% (w/v) crystal violet in 0.2M MES pH 5.0 for 1 h at room temperature. After washing extensively with dH2O the samples were transferred to fresh tissue culture plates and the crystal violet was solubilised in 10% (v/v) acetic acid. The absorbance was measured at 570 nm using a plate reader. The absorbance was converted to % cell attachment using the equation of a linear regression fit of standard known cell number controls.
Samples were peptide coated as for cell attachment analysis then washed 3× with PBS. […] The samples were then autoclaved at 120° C., 100 kPa above atmospheric pressure with steam for 20 min. For slow cooled samples the temperature of the autoclave returned to room temperature over a period of 4 hours. The other samples were removed once the autoclave reached 70° C. and were immediately immersed in room temperature PBS. All samples were washed 3× with PBS prior to measuring cell attachment.

[2] = test system: rabbit polyclonal antibody with specificity against the C-terminal RKRK motif of tropoelastin; experiment: C-terminal ELISA detection of RKRK exposure; assay type: binding; settings: for C-terminal ELISA detection: tissue culture plastic, increasing coating concentration (FIG. 13)
Source text: Rabbit polyclonal antibodies against exon 36 were raised by Biomatik. A peptide corresponding to exon 36 ([…]) conjugated to Keyhole Limpet Hemocyanin was used to immunize New Zealand rabbits. Exon 36 specific antibodies were purified from the resulting immune serum by affinity chromatography using the immunogen peptide. […] Therefore this protocol produced a rabbit polyclonal antibody with specificity against the C-terminal RKRK motif of tropoelastin.
Untreated or PIII treated polystyrene was incubated in peptide 36 containing buffer (10 mM PO4, 150 mM NaCl) of increasing pH for 1 hour at room temperature. After peptide immobilization the samples were washed 3× with PBS to remove non-bound peptide. Background antibody binding was blocked with 3% (w/v) BSA for 1 hour at room temperature. The primary rabbit-anti-C-terminal antibody was diluted to 1:5000 and added to the samples for 1 hour at room temperature. Non-bound antibody was removed with 3×PBS washes then detected with 1:10,000 diluted goat anti-rabbit whole IgG-HRP conjugated secondary antibody for 1 hour at room temperature. The secondary antibody was removed, the samples washed 3×PBS washes and then transferred to fresh tissue culture plates. ABTS solution (40 mM ABTS, 0.1 mM NaOAc, 0.05M NaH2PO4, 0.01% H2O2, pH 5) was added for 30 min and the absorbance read at 405 nm.

Human dermal fibroblasts [3] = experiment: Cell morphology / spreading and patterned cell distribution by phase contrast microscopy; assay type: cell-based
Description: PFTE and polystyrene were obtained from Goodfellow. PEEK was sourced from Vitrex. Peptide 36 ([…]) and peptide 36 short ([…]) were synthesized by Auspep. Recombinant human tropoelastin corresponding to amino acid residues 27-724 of GenBank entry AAC98394 (gi 182020) was expressed and purified as previously described. Human dermal fibroblasts were cultured in a humidified 5% CO2 atmosphere in DMEM (Invitrogen) supplemented with 10% (v/v) fetal calf serum (Invitrogen), and passaged 1 in 10 every 3-4 days. Unless stated otherwise all other reagents were purchased from Sigma.
Samples were contact or shadow masked during PIII treatment by layering 3 mm wide low contact ADH kapton tape (contact mask) (Associated Gaskets, Australia) or a 130 μm stainless steel plate (shadow mask) (Mastercut Technologies, Australia) over the sample during PIII treatment. The masks were removed immediately after treatment.
Samples were peptide 36 coated, BSA blocked and cell seeded as for cell attachment. After incubation for 90 min the cells were fixed with the addition of 37% (w/v) formaldehyde directly to the cell media to achieve a final concentration of 3% (w/v) for 20 min. For opaque samples the cells were crystal violet stained as for cell attachment. The cell morphology was then observed by phase contrast microscopy.

[4] = PIII treated polystyrene (FIG. 3A, B)
[5] = post PIII allylamine vapor treated PTFE (30 min exposure), versus PIII treated PTFE (FIG. 6B)
[6] = untreated polystyrene (FIG. 3A, B)
[7] = tape or shadow masked PIII treated polymer (polystyrene, PTFE; FIG. 4)
[8] = untreated polystyrene (FIG. 3C)

Sequence: ACLGKACGRKRK [peptide 36]
- % cell attachment (Human dermal fibroblasts [1]; 800 second PIII treated PTFE): 4.3±1.8%
- cell binding activity (Human dermal fibroblasts [1]; PIII treated PTFE (FIG. 6B)): low levels
- cell binding activity (Human dermal fibroblasts [1]; PIII treated PTFE and PEEK, pH 6 association buffer (FIG. 7C, D)): low levels of cell binding activity
- cell binding activity (Human dermal fibroblasts [1]; PIII treated PTFE and PEEK, pH 10 association buffer (FIG. 7C, D)): high levels of cell binding activity
- cell binding activity after dry autoclaving (Human dermal fibroblasts [1]; PIII treated PTFE): not cell adhesive
- cell binding activity after heating (Human dermal fibroblasts [1]; PIII treated PTFE, incubations of 70° C. and above (FIG. 9)): baseline levels of cell binding
- cell binding activity after liquid autoclaving (Human dermal fibroblasts [1]; PIII treated PTFE, pH 6, 150 mM NaCl autoclave liquid (FIG. 10A)): reduced to background levels
- cell binding activity after liquid autoclaving (Human dermal fibroblasts [1]; PIII treated PTFE, pH 10, 0 mM NaCl autoclave liquid, gradual cooling to room temperature (FIG. 10C)): comparable peptide 36-cell binding activity to the no-autoclave control
- cell binding activity after liquid autoclaving (Human dermal fibroblasts [1]; PIII treated PTFE, pH 10, 0 mM NaCl autoclave liquid, rapid cooling (FIG. 10B)): partial peptide 36-cell binding activity was retained
- cell attachment (Human dermal fibroblasts [1]; [4]): not cell adhesive
- cell binding activity (Human dermal fibroblasts [1]; PIII treated polystyrene, association buffer pH 10, 150 mM NaCl (FIG. 7B)): maximal cell binding activity
- cell binding activity (Human dermal fibroblasts [1]; PIII treated polystyrene, association buffers of up to pH 8, 150 mM NaCl (FIG. 7B)): low levels of cell biding activity
- maximal % cell attachment (Human dermal fibroblasts [1]; PIII treated polystyrene): 5.1±0.5%
- cell binding activity (Human dermal fibroblasts [1]; PIII treated surface, 150 mM NaCl association buffer, pH 7.4 (FIG. 7A)): background levels of binding
- cell binding activity (Human dermal fibroblasts [1]; PIII treated surface, low ionic strength association buffer, pH 7.4 (FIG. 7A)): high levels of peptide 36-cell binding activity
- peptide dependent cell attachment (Human dermal fibroblasts [1]; PTFE, 160 seconds of N2 plasma treatment): background levels
- % cell attachment (Human dermal fibroblasts [1]; PTFE, N2 plasma treatments up to 20 seconds before coating): 99.3-106.9%
- cell binding activity (Human dermal fibroblasts [1]; [5]): far greater levels of cell binding activity
- cell binding activity (Human dermal fibroblasts [1]; untreated PTFE (FIG. 6B)): high levels of cell binding
- cell binding activity after dry autoclaving (Human dermal fibroblasts [1]; untreated PTFE): retained
- cell binding activity after heating (Human dermal fibroblasts [1]; untreated PTFE, heated above 40° C. (FIG. 9)): not altered
- cell binding activity after liquid autoclaving (Human dermal fibroblasts [1]; untreated PTFE, regardless of the liquid buffer conditions (FIG. 10)): lost
- cell binding activity after heating (Human dermal fibroblasts [1]; untreated and PIII treated PTFE, heated 10 min up to 40° C. in pH 7.4, 150 mM NaCl (FIG. 9)): remained cell adhesive
- cell binding activity without autoclaving (Human dermal fibroblasts [1]; untreated and PIII treated PTFE, coated in pH 10, 0 mM NaCl buffer (FIG. 10)): cell adhesive on both untreated and PIII treated PTFE
- cell attachment (Human dermal fibroblasts [1]; [6]): high levels of cell adhesion
- cell attachment after Tween-20 washing (Human dermal fibroblasts [1]; untreated polystyrene, Tween-20 washed): background levels
- cell binding activity (Human dermal fibroblasts [1]; untreated polystyrene, 50 μM peptide, 10 mM PO4 pH 7.4, independent of NaCl content of association buffer (FIG. 7A)): high levels of cell-binding activity
- maximal % cell attachment (Human dermal fibroblasts [1]; untreated polystyrene): 98.6±12.5%
- cell binding activity (Human dermal fibroblasts [1]; untreated polystyrene, insensitive to pH of association buffer, 150 mM NaCl (FIG. 7B)): high levels of cell binding activity
- C-terminal ELISA detection of RKRK exposure ([2]; PIII treated polystyrene, association buffers with pH up to 8 (FIG. 8B)): low levels of peptide 36 RKRK exposure
- C-terminal ELISA detection of RKRK exposure ([2]; PIII treated polystyrene, coating concentrations up to 50 μM, 10 mM PO4, 150 mM NaCl, pH 7.4 (FIG. 8A)): little RKRK-dependent antibody detection
- C-terminal ELISA detection of RKRK exposure ([2]; PIII treated polystyrene, pH 10 association buffer, compared with untreated polystyrene (FIG. 8B)): not statistically different to those obtained on untreated polystyrene
- C-terminal ELISA detection [2]: detected
- C-terminal ELISA detection of RKRK exposure ([2]; untreated polystyrene, 50 μM peptide, association buffer of increasing pH (FIG. 8B)): detected peptide 36 across the entire range of pH
- C-terminal ELISA detection of RKRK exposure ([2]; untreated polystyrene, 10 mM PO4, 150 mM NaCl, pH 7.4, increase up to 10 μM coating, none further at 50 μM (FIG. 8A)): detected peptide 36 bound to the surface in a coating concentration dependent manner
- patterned cell distribution (Human dermal fibroblasts [3]; tape masked PIII treated PTFE, association buffer pH 7.4, 150 mM NaCl (FIG. 11)): retained selectively by peptide 36 on the untreated regions
- patterned cell distribution (Human dermal fibroblasts [3]; tape masked PIII treated PTFE, association buffer pH 10, 0 mM NaCl (FIG. 11)): cell binding on both the untreated and PIII treated sections
- patterned cell distribution (Human dermal fibroblasts [3]; tape masked PIII treated PTFE, washed with 2% Tween-20 or 5% SDS in pH 10, 0 mM NaCl at 70° C., gradual cooling (FIG. 11)): cell attachment exclusively in the PIII treated regions
- patterned cell distribution (Human dermal fibroblasts [3]; [7]): clearly restricted to the untreated regions
- cell spreading after Tween-20 washing (Human dermal fibroblasts [3]; untreated polymer, Tween-20 washed): removed peptide 36 dependent cell spreading activity
- cell spreading (Human dermal fibroblasts [3]; [8]): phase dark and flattened

Sequence: ACLGKACG [ΔRKRK peptide 36, peptide 36 where the RKRK motif was deleted]
- cell binding activity (Human dermal fibroblasts [1]; PIII treated PTFE (FIG. 6B)): low levels of cell binding activity
- cell attachment (Human dermal fibroblasts [1]; [4]): did not support cell binding
- cell binding activity (Human dermal fibroblasts [1]; [5]): low levels of cell binding activity
- cell binding activity (Human dermal fibroblasts [1]; untreated PTFE (FIG. 6B)): low levels of cell binding activity
- cell attachment (Human dermal fibroblasts [1]; [6]): did not support cell binding
- C-terminal ELISA detection [2]: not capable of detecting
- cell spreading (Human dermal fibroblasts [3]; PIII treated polystyrene (FIG. 3C)): did not elicit cell spreading
- patterned cell distribution (Human dermal fibroblasts [3]; [7]): absence of cell attachment and spreading
- cell spreading (Human dermal fibroblasts [3]; [8]): did not elicit cell spreading
